Experimental data from patent US20020143062A1, “Method to incorporate N-(4-hydroxyphenyl) retinamide in liposomes” (Board of Regents, The University of Texas System, priority 2000, published 2002).
Where two headings read alike, the source gives them in different places.

Experiments:
[1] = Incorporation efficiency of 4-HPR into liposomes (OD345 after/before separation); type: physicochemical
Protocol: The mixture was frozen in acetone-dry ice bath, and then dried by lyophilzer. It was stored as a powder and resuspended with saline before use.
To determine the incorporation efficiency of 4-HPR into liposomes, liposomal 4-HPR powder was resuspended in saline and any free, unincorporated free 4-HPR was separated by centrifugation at 30,000× g for 1 hour. Liposomal 4-HPR was collected as a pellet and washed three times with saline. 4-HPR concentration was determined by absorbance at 345 nm. To remove the interference by liposomal turbidity, absorbance was measured after liposomal 4-HPR before and after separation was diluted with 1:1 mixture of dimethylsulfoxide and water. The incorporation efficiency was calculated by the following equation:
Incorporation efficiency=OD345 (after separation)/OD345 (before separation)×100%

BT-474 cells = assay: Growth and viability, Celltiter 96 Aqueous (MTS) cell proliferation assay; type: cell-based; conditions: Homo sapiens, BT-474, 72 h, 3 days, % of untreated cells, read-out: Growth and viability (%) after treatment
Protocol: (§1) Breast cancer cell lines were plated in 96 well plates in DMEM/F12 medium supplemented with 5% fetal calf serum and incubated with different concentrations of liposomal 4-HPR and free 4-HPR, respectively. At the end of incubation, the growth of cells was determined by the Celltiter 96 Aqueous nonradioactive cell proliferation assay (Promega Corp., Madison, Wis.) according to the manufacturer's protocol. Growth and viability of cells were determined by MTS assay after treatment with 4-HPR for 3 days (BT-474) and 4 days (MCF7). Growth of treated cells was compared with that of untreated cells cultured under the same conditions, and was expressed as % of untreated cells.

MCF-7 cells = assay: as above; type: cell-based; conditions: Homo sapiens, MCF7, 96 h, 4 days, % of untreated cells, read-out: Growth and viability (%) after treatment
Protocol: as §1

ER-positive MCF-7 cells [2] = assay: NO production, nitrite assay (Tables 5 and 7); type: cell-based
From the text: (§2) Nitric oxide (NO), an important biological second messenger, is known to induce growth inhibition and apoptosis in cells. Nitric oxide (NO) is biosynthesized by isoenzymes called nitric oxide synthases. One such isoenzyme, inducible NOS (iNOS), is present only after cytokine induction, such as interferon-γ (IFN-γ). […] Here, the ability of liposomal 4-HPR and IFN-γ to induce NO production and growth inhibition in breast cancer positive (Table 5) and breast cancer negative (Table 6) cells is examined by nitrite assays and growth inhibition assays, as known to the skilled artisan.
(§3) It is also known to those skilled in the art that nitric oxide (NO) is a biologic mediator derived from the amino acid L-arginine. A family of enzymes, known as nitric oxide synthase (NOS), act upon L-arginine to oxidize one of the guanidino nitrogens to nitric oxide while citrulline is formed from the remainder of the L-arginine molecule.
(§4) Liposomal 4-HPR in combination with cyclosporin A, increased iNOS production of NO in breast cancer cells (Table 3-5). […] Furthermore, an increase in the production of NO in these cells was not indicated with other retinoids such as CD437 and ATRA.

ER-positive MCF-7 cells [3] = assay: Growth inhibition, cell count (Table 5); type: cell-based; conditions: 4HPR 1 μM alone; 5 days
From the text: as §2

ER-positive MCF-7 cells [4] = assay: NO production, nitrite assay (Table 6); type: cell-based; conditions: 4HPR 1 μM alone, 5 days
From the text: as §2, §3

ER-positive MCF-7 cells [5] = assay: Growth inhibition, cell count (Table 6); type: cell-based; conditions: 4HPR 1 μM alone, 5 days
From the text: Nitric oxide (NO), an important biological second messenger, is known to induce growth inhibition and apoptosis in cells. Nitric oxide (NO) is biosynthesized by isoenzymes called nitric oxide synthases. […]

[6] = system: ER-negative MDA-MB-231 cells; assay: NO production, nitrite (Table 8); type: cell-based; conditions: alone or with cyclosporin A 4 μg/ml as labelled, 3 days
From the text: as §4

MCF-7/WT = assay: Cellular proliferation assay, IC50 of retinoids with/without cyclosporin A; type: cell-based; conditions: for IC50: Homo sapiens
MCF-7/ADR = assay: as above; type: cell-based; conditions: for IC50: Homo sapiens, NCI/ADR-RES
BT-474 [7] = assay: as above; type: cell-based; conditions: for IC50: Homo sapiens
MDA-MB-453 [8] = assay: as above; type: cell-based; conditions: for IC50: Homo sapiens
MDA-MB-231 = assay: as above; type: cell-based; conditions: for IC50: Homo sapiens
BT-474 [9] = assay: NO production, nitrite (Table 10); type: cell-based; conditions: Herceptin − or + as labelled
From the text: (§5) Overexpression/amplification of the Her-2/neu oncogene has been associated with poor prognosis for breast cancer.

MDA-MB-453 [10] = assay: NO production, nitrite (Table 10); type: cell-based; conditions: Herceptin − or + as labelled
From the text: as §5

SK-Br-3 = assay: NO production, nitrite (Table 10); type: cell-based; conditions: Herceptin − or + as labelled
From the text: as §5

[11] = 100 μM
Protocol: The shelf stability of liposomal 4-HPR with free 4-HPR was compared. Liposomal 4-HPR and free 4-HPR were diluted with 0.9% normal saline at 100 μM concentration, and incubated at room temperature under subdued light. At various time points, absorbance at 345 nm was measured as a parameter of 4-HPR stability. All data are expressed as % of absorbance at time zero, which is considered as 100%.

[12] = cited from earlier work
[13] = without cyclosporin A, read-out: IC50 Without CsA
[14] = cotreatment with CsA 2 μg/ml, read-out: IC50 With CsA

incorporation efficiency ([1]; by optimizing ratio of 4-HPR to lipid mixture and ratio of DMPC to soybean oil): up to 96% | Incorporation efficiency (%) ([1]; composition column 1 of 7: 4-HPR:Lipid (w/w) 1:17, DMPC:soybean oil 1:0, water in tertiary butyl alcohol 0): 60.0% | Incorporation efficiency (%) ([1]; composition column 2 of 7: 4-HPR:Lipid 1:17, DMPC:soybean oil 1:0, water in tertiary butyl alcohol 1): 81.5% | Incorporation efficiency (%) ([1]; composition column 3 of 7: water in tertiary butyl alcohol 1, lipid ratios not resolvable (header spans lost), DMPC:soybean oil 9:1): 87.5% | Incorporation efficiency (%) ([1]; composition column 4 of 7: water in tertiary butyl alcohol 10, lipid ratios not resolvable (header spans lost)): 92.8% | Incorporation efficiency (%) ([1]; composition column 5 of 7: water in tertiary butyl alcohol 1, lipid ratios not resolvable (header spans lost), DMPC:soybean oil 8:2): 77.5% | Incorporation efficiency (%) ([1]; composition column 6 of 7: 4-HPR:Lipid 1:5 (likely), DMPC:soybean oil 9:1, water in tertiary butyl alcohol 10): 88.3% | Incorporation efficiency (%) ([1]; composition column 7 of 7: 4-HPR:Lipid 1:15, DMPC:soybean oil 9:1, water in tertiary butyl alcohol 10): 96.4% | -Fold ↑ (IC50 without CsA / with CsA) (MCF-7/WT; CsA 2 μg/ml): 3.11 -Fold | IC50 (MCF-7/WT; MCF7, cotreatment with CsA 2 μg/ml, read-out: IC50 With CsA): 1.21 µM | IC50 (MCF-7/WT; MCF7, without cyclosporin A, read-out: IC50 Without CsA): 3.76 µM | -Fold ↑ (IC50 without CsA / with CsA) (MCF-7/ADR; CsA 4 μg/ml): 2.47 -Fold | IC50 (MCF-7/ADR; cotreatment with CsA 4 μg/ml, read-out: IC50 With CsA): 2.7 µM | IC50 (MCF-7/ADR; [13]): 6.66 µM | -Fold ↑ (IC50 without CsA / with CsA) (BT-474 [7]; CsA 2 μg/ml): 1.81 -Fold | IC50 (BT-474 [7]; [14]): 1.99 µM | IC50 (BT-474 [7]; [13]): 3.61 µM | -Fold ↑ (IC50 without CsA / with CsA) (MDA-MB-453 [8]; CsA 2 μg/ml): 3.26 -Fold | IC50 (MDA-MB-453 [8]; [14]): 1.9 µM | IC50 (MDA-MB-453 [8]; [13]): 6.2 µM | -Fold ↑ (IC50 without CsA / with CsA) (MDA-MB-231; CsA 2 μg/ml): 6.37 -Fold | IC50 (MDA-MB-231; [14]): 1.23 µM | IC50 (MDA-MB-231; [13]): 7.84 µM | % remaining (absorbance at 345 nm as % of time zero) ([11]; 0 h): 100% | % remaining (absorbance at 345 nm as % of time zero) ([11]; 24 h): 85% | % remaining (absorbance at 345 nm as % of time zero) ([11]; 48 h): 84% | % remaining (absorbance at 345 nm as % of time zero) ([11]; 72 h): 71% | % remaining (absorbance at 345 nm as % of time zero) ([11]; 96 h): 61% | % remaining (absorbance at 345 nm as % of time zero) ([11]; 120 h): 51% | % remaining (absorbance at 345 nm as % of time zero) ([11]; 168 h): 32%
Compound: CC1=C(/C=C/C(C)=C/C=C/C(C)=C/C(=O)Nc2ccc(O)cc2)C(C)(C)CCC1 [4-HPR, N-(4-hydroxyphenyl) retinamide]
viability at 0.1 µM (BT-474 cells; 0.1 μM 4-HPR): 100 ± 13.4% | viability at 0.9 µM (BT-474 cells; 0.9 μM 4-HPR): 109 ± 4.1% | viability at […] (BT-474 cells; 1.5 μM 4-HPR): 99.4 ± 12.1% | viability at 2.3 µM (BT-474 cells; 2.3 μM 4-HPR): 76.9 ± 5.3% | viability at 3.8 µM (BT-474 cells; 3.8 μM 4-HPR): 52.6 ± 3.7% | viability at 9 µM (BT-474 cells; 9.0 μM 4-HPR): 17.1 ± 2.8% | viability at 0.1 µM (MCF-7 cells; 0.1 μM 4-HPR): 106 ± 7.8% | viability at 0.9 µM (MCF-7 cells; 0.9 μM 4-HPR): 77.5 ± 5.8% | viability at […] (MCF-7 cells; 1.5 μM 4-HPR): 43.8 ± 5.7% | viability at 1.8 µM (MCF-7 cells; 1.8 μM 4-HPR): 33.6 ± 2% | viability at 3.6 µM (MCF-7 cells; 3.6 μM 4-HPR): 17.8 ± 1.5% | Nitrite (NO production) (ER-positive MCF-7 cells [2]; 4HPR 1 μM alone, 5 days, text: liposomal 4-HPR): 72.6 ± 1.7 μM Nitrite /1 × 10^6 cells | Nitrite (NO production) (ER-positive MCF-7 cells [2]; 4HPR 1.0 μM, alone or with cyclosporin A 4 μg/ml as labelled, 3 days): 12.5 μM Nitrite /1 × 10^6 cells | Nitrite (NO production) (ER-positive MCF-7 cells [2]; 4HPR 2.0 μM, alone or with cyclosporin A 4 μg/ml as labelled, 3 days): 33.8 μM Nitrite /1 × 10^6 cells | Cell count (ER-positive MCF-7 cells [3]): 20 × 10^4 | Nitrite (NO production) (ER-positive MCF-7 cells [4]): 36.9 ± 5.8 μM Nitrite /1 × 10^6 cells | Cell count (ER-positive MCF-7 cells [5]): 34 × 10^4 | Nitrite (NO production) ([6]; 4HPR 2.5 μM): 22.8 μM Nitrite /1 × 10^6 cells | Nitrite (NO production) ([6]; 4HPR 6.0 μM): 26.7 μM Nitrite /1 × 10^6 cells | Nitrite (NO production) (BT-474 [9]; 4HPR 1 μM): 45.8 ± 0. μM Nitrite /1 × 10^6 cells | Nitrite (NO production) (BT-474 [9]; 4HPR 2.5 μM): 146.9 ± 2.8 μM Nitrite /1 × 10^6 cells | Nitrite (NO production) (MDA-MB-453 [10]; 4HPR 1 μM): 30.9 ± 1.5 μM Nitrite /1 × 10^6 cells | Nitrite (NO production) (MDA-MB-453 [10]; 4HPR 2.5 μM): 68.1 ± 3.4 μM Nitrite /1 × 10^6 cells | Nitrite (NO production) (SK-Br-3; 4HPR 1 μM): 34.9 ± 1.2 μM Nitrite /1 × 10^6 cells | Nitrite (NO production) (SK-Br-3; 4HPR 2.5 μM): 75.2 ± 5.1 μM Nitrite /1 × 10^6 cells | solubility in water [12]: poorly soluble in water
